From patent US7851474B2, “Dipiperazinyl ketones and related analogues” (Neurogen Corporation, priority 2005, dated 2010)

The compounds below were run against T1, chimeric human H3 receptor (Homo sapiens, UniProt Q9Y5N1, E19D) (assay: Chimeric human H3 receptor GTP binding assay (agonist-stimulated GTP-gamma35S binding, Example 7)). Conditions: Table II "Ki", symbol "*": Ki in the assay of Example 7; read-out: Ki.
T1 construct: made in house; host or cells: Sf9 insect cells (baculovirus infection); P2 membrane preparation
T1 sequence (Q9Y5N1 with tags, fused parts or gaps E19D): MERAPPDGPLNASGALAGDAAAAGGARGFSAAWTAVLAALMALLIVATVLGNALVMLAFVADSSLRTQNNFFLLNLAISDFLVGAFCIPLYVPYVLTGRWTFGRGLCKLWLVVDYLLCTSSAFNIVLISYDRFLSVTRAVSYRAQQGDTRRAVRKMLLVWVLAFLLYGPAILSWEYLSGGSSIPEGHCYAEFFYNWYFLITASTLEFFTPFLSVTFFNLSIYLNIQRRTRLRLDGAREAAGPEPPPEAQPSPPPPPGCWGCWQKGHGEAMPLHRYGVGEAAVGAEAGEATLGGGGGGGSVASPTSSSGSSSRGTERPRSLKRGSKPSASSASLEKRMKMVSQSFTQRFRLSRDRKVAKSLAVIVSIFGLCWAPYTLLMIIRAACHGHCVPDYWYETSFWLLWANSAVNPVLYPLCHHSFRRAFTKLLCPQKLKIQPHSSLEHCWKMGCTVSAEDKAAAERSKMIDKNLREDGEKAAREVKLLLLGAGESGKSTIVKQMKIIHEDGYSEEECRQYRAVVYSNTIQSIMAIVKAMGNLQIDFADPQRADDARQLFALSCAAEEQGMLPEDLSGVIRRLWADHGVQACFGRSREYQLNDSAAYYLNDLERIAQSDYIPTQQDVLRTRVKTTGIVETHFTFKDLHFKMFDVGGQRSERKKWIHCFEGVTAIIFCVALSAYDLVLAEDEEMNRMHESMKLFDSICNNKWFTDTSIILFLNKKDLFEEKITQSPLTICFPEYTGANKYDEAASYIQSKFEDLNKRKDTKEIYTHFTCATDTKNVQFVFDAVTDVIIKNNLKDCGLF
Assay type: biochemical
Outline: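 IC50 values come from non-linear regression of dose-response curves of filter-bound GTP-gamma^35S, counted by scintillation. Membranes were from infected Sf9 cells carrying receptor plus G-protein subunits, 35 μg/tube, with 10 μM GDP present.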

| Ki [nM] | SMILES |
| --- | --- |
| < 1000 | O=C(CN1CCN(c2cnc(-c3ccc(Oc4ccccc4)cc3)cn2)CC1)N1CCN(C2CCC2)CC1 [Compound 936, 2-{4-[2-(4-cyclobutylpiperazin-1-yl)-2-oxoethyl]piperazin-1-yl}-5-(4-phenoxyphenyl)pyrazine] |
| < 1000 | O=C(CN1CCN(c2cnc(-c3cccc(OC(F)(F)F)c3)cn2)CC1)N1CCN(C2CCC2)CC1 [Compound 937, 2-{4-[2-(4-cyclobutylpiperazin-1-yl)-2-oxoethyl]piperazin-1-yl}-5-[3-(trifluoromethoxy)phenyl] pyrazine] |
| < 1000 | CSc1cccc(-c2cnc(N3CCN(CC(=O)N4CCN(C5CCC5)CC4)CC3)cn2)c1 [Compound 938, 2-{4-[2-(4-cyclobutylpiperazin-1-yl)-2-oxoethyl]piperazin-1-yl}-5-[3-(methylthio)phenyl] pyrazine] |

Same assay, conditions: Table II; assay of Example 7; "*" in Ki; read-out: Ki

| Ki [nM] | SMILES |
| --- | --- |
| < 1000 | COc1ccc(-c2ccc(-c3cnc(N4CCN(CC(=O)N5CCN(C6CCC6)CC5)CC4)cn3)cc2)cc1 [Compound 939, 2-{4-[2-(4-cyclobutylpiperazin-1-yl)-2-oxoethyl]piperazin-1-yl}-5-(4′-methoxybiphenyl-4-yl)pyrazine] |
| < 1000 | COc1cc(F)c(-c2cnc(N3CCN(CC(=O)N4CCN(C5CCC5)CC4)CC3)cn2)cc1F [Compound 940, 2-{4-[2-(4-cyclobutylpiperazin-1-yl)-2-oxoethyl]piperazin-1-yl}-5-(2,5-difluoro-4-methoxyphenyl)pyrazine] |
| < 1000 | COc1ccc2cc(-c3cnc(N4CCN(CC(=O)N5CCN(C6CCC6)CC5)CC4)cn3)ccc2c1 [Compound 941, 2-{4-[2-(4-cyclobutylpiperazin-1-yl)-2-oxoethyl]piperazin-1-yl}-5-(6-methoxy-2-naphthyl)pyrazine] |
| < 1000 | CC(C)Oc1cccc(-c2cnc(N3CCN(CC(=O)N4CCN(C5CCC5)CC4)CC3)cn2)c1 [Compound 942, 2-{4-[2-(4-cyclobutylpiperazin-1-yl)-2-oxoethyl]piperazin-1-yl}-5-(3-isopropoxyphenyl) pyrazine] |
| < 1000 | COc1cc(-c2cnc(N3CCN(CC(=O)N4CCN(C5CCC5)CC4)CC3)cn2)cc(OC)c1OC [Compound 943, 2-{4-[2-(4-cyclobutylpiperazin-1-yl)-2-oxoethyl]piperazin-1-yl}-5-(3,4,5-trimethoxyphenyl)pyrazine] |
| < 1000 | COc1ccc(-c2cnc(N3CCN(CC(=O)N4CCN(C5CCC5)CC4)CC3)cn2)cc1 [Compound 944, 2-{4-[2-(4-cyclobutylpiperazin-1-yl)-2-oxoethyl]piperazin-1-yl}-5-(4-methoxyphenyl)pyrazine] |
| < 1000 | COc1ccc(-c2cnc(N3CCN(CC(=O)N4CCN(C5CCC5)CC4)CC3)cn2)cc1OC [Compound 945, 2-{4-[2-(4-cyclobutylpiperazin-1-yl)-2-oxoethyl]piperazin-1-yl}-5-(3,4-dimethoxyphenyl) pyrazine] |
| < 1000 | CCOc1ccc(-c2cnc(N3CCN(CC(=O)N4CCN(C5CCC5)CC4)CC3)cn2)cc1 [Compound 946, 2-{4-[2-(4-cyclobutylpiperazin-1-yl)-2-oxoethyl]piperazin-1-yl}-5-(4-ethoxyphenyi)pyrazine] |
| < 1000 | O=C(CN1CCN(c2cnc(-c3ccc4c(c3)OCCO4)cn2)CC1)N1CCN(C2CCC2)CC1 [Compound 947, 2-{4-[2-(4-cyclobutylpiperazin-1-yl)-2-oxoethyl]piperazin-1-yl}-5-(2,3-dihydro-1,4-benzodioxin-6-yl)pyrazine] |
| < 1000 | COc1ccc(-c2cnc(N3CCN(CC(=O)N4CCN(C5CCC5)CC4)CC3)cn2)cc1C [Compound 948, 2-{4-[2-(4-cyclobutylpiperazin-1-yl)-2-oxoethyl]piperazin-1-yl}-5-(4-methoxy-3-methylphenyl)pyrazine] |
| < 1000 | CCCOc1ccc(-c2cnc(N3CCN(CC(=O)N4CCN(C5CCC5)CC4)CC3)cn2)cc1 [Compound 949, 2-{4-[2-(4-cyclobutylpiperazin-1-yl)-2-oxoethyl]piperazin-1-yl}-5-(4-propoxyphenyl)pyrazine] |
| < 1000 | COc1ccc(-c2cnc(N3CCN(CC(=O)N4CCN(C5CCC5)CC4)CC3)cn2)c(C)c1 [Compound 950, 2-{4-[2-(4-cyclobutylpiperazin-1-yl)-2-oxoethyl]piperazin-1-yl}-5-(4-methoxy-2-methylphenyl)pyrazine] |
| < 1000 | COc1ccccc1-c1cnc(N2CCN(CC(=O)N3CCN(C4CCC4)CC3)CC2)cn1 [Compound 951, 2-{4-[2-(4-cyclobutylpiperazin-1-yl)-2-oxoethyl]piperazin-1-yl}-5-(2-methoxyphenyl)pyrazine] |
| < 1000 | COc1ccc(C(C)C)cc1-c1cnc(N2CCN(CC(=O)N3CCN(C4CCC4)CC3)CC2)cn1 [Compound 952, 2-{4-[2-(4-cyclobutylpiperazin-1-yl)-2-oxoethyl]piperazin-1-yl}-5-(5-isopropyl-2-methoxyphenyl)pyrazine] |
| < 1000 | COc1ccc(OC)c(-c2cnc(N3CCN(CC(=O)N4CCN(C5CCC5)CC4)CC3)cn2)c1 [Compound 953, 2-{4-[2-(4-cyclobutylpiperazin-1-yl)-2-oxoethyl]piperazin-1-yl}-5-(2,5-dimethoxyphenyl) pyrazine] |
| < 1000 | COc1ccc(-c2cnc(N3CCN(CC(=O)N4CCN(C5CCC5)CC4)CC3)cn2)c(OC)c1 [Compound 954, 2-{4-[2-(4-cyclobutylpiperazin-1-yl)-2-oxoethyl]piperazin-1-yl}-5-(2,4-dimethoxyphenyl) pyrazine] |

| Ki [nM] | SMILES |
| --- | --- |
| < 1000 | CCOc1ccccc1-c1cnc(N2CCN(CC(=O)N3CCN(C4CCC4)CC3)CC2)cn1 [Compound 955, 2-{4-[2-(4-cyclobutylpiperazin-1-yl)-2-oxoethyl]piperazin-1-yl}-5-(2-ethoxyphenyl)pyrazine] |
| < 1000 | O=C(CN1CCN(c2cnc(-c3cccc4c3oc3ccccc34)cn2)CC1)N1CCN(C2CCC2)CC1 [Compound 956, 2-{4-[2-(4-cyclobutylpiperazin-1-yl)-2-oxoethyl]piperazin-1-yl}-5-dibenzo[b,d]furan-4-ylpyrazine] |
| < 1000 | COc1ccc(F)cc1-c1cnc(N2CCN(CC(=O)N3CCN(C4CCC4)CC3)CC2)cn1 [Compound 957, 2-{4-[2-(4-cyclobutylpiperazin-1-yl)-2-oxoethyl]piperazin-1-yl}-5-(5-fluoro-2-methoxyphenyl)pyrazine] |
| < 1000 | COc1ccc(C)cc1-c1cnc(N2CCN(CC(=O)N3CCN(C4CCC4)CC3)CC2)cn1 [Compound 958, 2-{4-[2-(4-cyclobutylpiperazin-1-yl)-2-oxoethyl]piperazin-1-yl}-5-(2-methoxy-5-methylphenyl)pyrazine] |
| < 1000 | O=C(CN1CCN(c2cnc(-c3ccccc3Oc3ccccc3)cn2)CC1)N1CCN(C2CCC2)CC1 [Compound 959, 2-{4-[2-(4-cyclobutylpiperazin-1-yl)-2-oxoethyl]piperazin-1-yl}-5-(2-phenoxyphenyl)pyrazine] |
| < 1000 | O=C(CN1CCN(c2cnc(-c3cc(F)ccc3F)cn2)CC1)N1CCN(C2CCC2)CC1 [Compound 960, 2-{4-[2-(4-cyclobutylpiperazin-1-yl)-2-oxoethyl]piperazin-1-yl}-5-(2,5-difluorophenyl)pyrazine] |
| < 1000 | O=C(CN1CCN(c2cnc(-c3ccc(F)cc3F)cn2)CC1)N1CCN(C2CCC2)CC1 [Compound 961, 2-{4-[2-(4-cyclobutylpiperazin-1-yl)-2-oxoethyl]piperazin-1-yl}-5-(2,4-difluorophenyl)pyrazine] |
| < 1000 | O=C(CN1CCN(c2cnc(-c3ccc(F)c(F)c3)cn2)CC1)N1CCN(C2CCC2)CC1 [Compound 962, 2-{4-[2-(4-cyclobutylpiperazin-1-yl)-2-oxoethyl]piperazin-1-yl}-5-(3,4-difluorophenyl)pyrazine] |
| < 1000 | O=C(CN1CCN(c2cnc(-c3cc(Cl)cc(Cl)c3)cn2)CC1)N1CCN(C2CCC2)CC1 [Compound 963, 2-{4-[2-(4-cyclobutylpiperazin-1-yl)-2-oxoethyl]piperazin-1-yl}-5-(3,5-dichlorophenyl)pyrazine] |
| < 1000 | O=C(CN1CCN(c2cnc(-c3ccc(Cl)c(Cl)c3)cn2)CC1)N1CCN(C2CCC2)CC1 [Compound 964, 2-{4-[2-(4-cyclobutylpiperazin-1-yl)-2-oxoethyl]piperazin-1-yl}-5-(3,4-dichlorophenyl)pyrazine] |
| < 1000 | O=C(CN1CCN(c2cnc(-c3cc(F)cc(F)c3)cn2)CC1)N1CCN(C2CCC2)CC1 [Compound 965, 2-{4-[2-(4-cyclobutylpiperazin-1-yl)-2-oxoethyl]piperazin-1-yl}-5-(3,5-difluorophenyl)pyrazine] |
| < 1000 | O=C(CN1CCN(c2cnc(-c3cccc(F)c3F)cn2)CC1)N1CCN(C2CCC2)CC1 [Compound 966, 2-{4-[2-(4-cyclobutylpiperazin-1-yl)-2-oxoethyl]piperazin-1-yl}-5-(2,3-difluorophenyl)pyrazine] |
| < 1000 | O=C(CN1CCN(c2cnc(-c3cccc(Cl)c3Cl)cn2)CC1)N1CCN(C2CCC2)CC1 [Compound 967, 2-{4-[2-(4-cyclobutylpiperazin-1-yl)-2-oxoethyl]piperazin-1-yl}-5-(2,3-dichlorophenyl)pyrazine] |
| < 1000 | O=C(CN1CCN(c2cnc(-c3ccc(Cl)cc3Cl)cn2)CC1)N1CCN(C2CCC2)CC1 [Compound 968, 2-{4-[2-(4-cyclobutylpiperazin-1-yl)-2-oxoethyl]piperazin-1-yl}-5-(2,4-dichlorophenyl)pyrazine] |
| < 1000 | O=C(CN1CCN(c2cnc(-c3ccccc3C(F)(F)F)cn2)CC1)N1CCN(C2CCC2)CC1 [Compound 969, 2-{4-[2-(4-cyclobutylpiperazin-1-yl)-2-oxoethyl]piperazin-1-yl}-5-[2-(trifluoromethyl)phenyl] pyrazine] |
| < 1000 | COc1cccc(OC)c1-c1cnc(N2CCN(CC(=O)N3CCN(C4CCC4)CC3)CC2)cn1 [Compound 970, 2-{4-[2-(4-cyclobutylpiperazin-1-yl)-2-oxoethyl]piperazin-1-yl}-5-(2,6-dimethoxyphenyl) pyrazine] |
